Each block holds one molecule with its values, some of them ahead of it. Activity calls are given as the source filed them.
How the values were obtained:
[1] = inhibitors of intracellular T. cruzi replication, confirmation, NIH3T3 host cells, beta-gal luminescence (AID 2044); format: functional, cell-based;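 also: intracellular parasites grown in NIH/3T3 mouse fibroblasts as host cells; luminescent beta-galactosidase reporter signal from transgenic T. cruzi replicating inside host cells; inhibitors lower the luminescence signal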
[2] = biological target: Serine/threonine-protein phosphatase (Homo sapiens, UniProt Q9BPW0); assay: Counterscreen for inhibitors of PP1: fluorescence-based biochemical high throughput dose response assay to identify inhibitors of Protein Phosphatase 5 (PP5). [Related pubchem assays: 2034 (Summary (PP5 inhibitors)), 1987 (PP5 inhibitors in singlate), 2235 (PP1 inhibitors in singlate)]
[3] = biological target: Serine/threonine-protein phosphatase PP1-alpha catalytic subunit (Homo sapiens, UniProt P62136); assay: PP1 phosphatase inhibitors, dose response, biochemical, fluorescence (AID 2403);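 also: phosphatase turnover of OMFP into fluorescent 3-O-methylfluorescein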
[4] = cytotoxicity toward NIH3T3 fibroblasts, dose response, counter-screen, cell-based, ATP luminescence, mouse fibroblasts (AID 2010); format: functional;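 also: cells exposed to compound for about 90 hours before reading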
[5] = biological target: T1, Neuropeptide Y receptor type 1 (Homo sapiens, UniProt P25929); assay: Fluorescence-based dose response cell-based high-throughput screening assay for agonists of NPY-Y1. [Related pubchem assays: 1697 (Screening assay (NPY-Y1 agonists).), 1359 (Screening assay (NPY-Y2 potentiators or agonists).), 1304 (Screening assay (NPY-Y1 potentiators or agonists).), 1704 (Screening assay (CNGC inhibitors).), 1791 (Summary AID.)]; format: functional
T1 sequence (P25929 whole entry): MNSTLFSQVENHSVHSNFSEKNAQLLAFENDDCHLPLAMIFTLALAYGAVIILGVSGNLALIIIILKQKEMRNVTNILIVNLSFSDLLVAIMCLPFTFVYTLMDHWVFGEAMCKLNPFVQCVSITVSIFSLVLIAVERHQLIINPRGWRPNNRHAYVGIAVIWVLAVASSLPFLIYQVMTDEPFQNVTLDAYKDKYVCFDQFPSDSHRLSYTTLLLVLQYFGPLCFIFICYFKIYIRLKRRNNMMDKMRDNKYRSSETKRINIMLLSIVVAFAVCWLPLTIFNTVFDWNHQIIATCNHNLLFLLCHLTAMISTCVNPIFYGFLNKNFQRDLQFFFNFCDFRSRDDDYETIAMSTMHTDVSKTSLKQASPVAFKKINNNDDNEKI

[6] = system: HEK293; assay: Fluorescence-based counterscreen for potentiators or agonists of NPY-Y1: cell-based high-throughput dose response assay for inhibitors of cyclic nucleotide gated ion channel (CNGC) activity. In this assay, the parental HEK293 cell line transfected with a cyclic-nucleotide gated ion channel (CNGC)-based cAMP sensor is used to measure inhibition of isoproterenol-induced CNGC …; format: functional; settings: Homo sapiens
[7] = biological target: T2, Neuropeptide Y receptor type 2 (Homo sapiens, UniProt P49146); assay: Fluorescence-based counterscreen for agonists of NPY-Y1: cell-based high-throughput dose response assay for agonists of NPY-Y2.; format: functional
T2 sequence (P49146 whole entry): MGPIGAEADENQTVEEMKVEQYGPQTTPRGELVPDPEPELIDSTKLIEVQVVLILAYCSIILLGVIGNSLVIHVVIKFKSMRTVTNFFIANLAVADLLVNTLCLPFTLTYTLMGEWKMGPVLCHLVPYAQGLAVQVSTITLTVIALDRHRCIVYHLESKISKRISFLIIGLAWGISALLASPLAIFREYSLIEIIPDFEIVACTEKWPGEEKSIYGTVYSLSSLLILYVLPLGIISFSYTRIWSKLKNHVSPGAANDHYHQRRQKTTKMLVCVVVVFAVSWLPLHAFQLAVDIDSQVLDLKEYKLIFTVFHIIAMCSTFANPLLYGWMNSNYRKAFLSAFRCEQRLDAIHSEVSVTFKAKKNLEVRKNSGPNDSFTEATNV

[8] = biological target: Melanin-concentrating hormone receptor 1 (Homo sapiens, UniProt Q99705); assay: Fluorescence-based counterscreen for antagonists of the G-protein coupled receptor 7 (GPR7): cell-based high throughput dose response assay to identify antagonists of the melanin-concentrating hormone receptor 1 (MCHR1).; format: functional
[9] = biological target: Neuropeptides B/W receptor type 1 (Homo sapiens, UniProt P48145); assay: Fluorescence-based dose response cell-based high throughput screening assay to identify antagonists of the G-protein coupled receptor 7 (GPR7). [Related pubchem assays: 1952 (Screening assay (GPR7 antagonists).), 1880 (Summary AID.)]; format: functional
Chain of Neuropeptides B/W receptor type 1 (P48145 whole entry): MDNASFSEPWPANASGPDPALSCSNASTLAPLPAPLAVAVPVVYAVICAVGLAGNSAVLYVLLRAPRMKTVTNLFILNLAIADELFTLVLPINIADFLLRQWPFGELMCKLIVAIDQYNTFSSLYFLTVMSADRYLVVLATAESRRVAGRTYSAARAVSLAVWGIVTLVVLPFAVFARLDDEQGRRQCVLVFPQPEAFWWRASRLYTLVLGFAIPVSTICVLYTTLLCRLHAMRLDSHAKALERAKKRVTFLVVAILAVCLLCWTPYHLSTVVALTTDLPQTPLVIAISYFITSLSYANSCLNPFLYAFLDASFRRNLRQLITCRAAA

Chain of Melanin-concentrating hormone receptor 1 (Q99705 whole entry): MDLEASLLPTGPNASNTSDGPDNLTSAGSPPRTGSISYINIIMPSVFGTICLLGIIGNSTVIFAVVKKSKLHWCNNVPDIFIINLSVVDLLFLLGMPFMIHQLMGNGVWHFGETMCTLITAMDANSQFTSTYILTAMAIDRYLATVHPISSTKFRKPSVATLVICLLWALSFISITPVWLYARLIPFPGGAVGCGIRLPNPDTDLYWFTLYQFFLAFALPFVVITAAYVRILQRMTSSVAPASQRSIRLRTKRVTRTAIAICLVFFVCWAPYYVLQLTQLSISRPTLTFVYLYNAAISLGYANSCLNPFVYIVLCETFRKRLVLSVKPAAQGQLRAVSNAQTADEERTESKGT
Chain of Serine/threonine-protein phosphatase (Q9BPW0 whole entry): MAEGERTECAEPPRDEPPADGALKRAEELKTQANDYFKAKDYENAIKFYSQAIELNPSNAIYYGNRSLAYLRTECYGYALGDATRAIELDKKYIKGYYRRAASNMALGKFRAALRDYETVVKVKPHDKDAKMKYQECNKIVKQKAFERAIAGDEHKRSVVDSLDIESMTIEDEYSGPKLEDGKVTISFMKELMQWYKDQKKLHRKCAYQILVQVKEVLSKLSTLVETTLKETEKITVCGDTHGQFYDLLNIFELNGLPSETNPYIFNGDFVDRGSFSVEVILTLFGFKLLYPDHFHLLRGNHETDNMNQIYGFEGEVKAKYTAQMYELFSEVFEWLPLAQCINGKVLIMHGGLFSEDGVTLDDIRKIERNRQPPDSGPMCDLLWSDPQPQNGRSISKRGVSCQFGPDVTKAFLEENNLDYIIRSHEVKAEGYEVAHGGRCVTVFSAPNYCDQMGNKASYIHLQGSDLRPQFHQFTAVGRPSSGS
Chain of Serine/threonine-protein phosphatase PP1-alpha catalytic subunit (P62136 whole entry): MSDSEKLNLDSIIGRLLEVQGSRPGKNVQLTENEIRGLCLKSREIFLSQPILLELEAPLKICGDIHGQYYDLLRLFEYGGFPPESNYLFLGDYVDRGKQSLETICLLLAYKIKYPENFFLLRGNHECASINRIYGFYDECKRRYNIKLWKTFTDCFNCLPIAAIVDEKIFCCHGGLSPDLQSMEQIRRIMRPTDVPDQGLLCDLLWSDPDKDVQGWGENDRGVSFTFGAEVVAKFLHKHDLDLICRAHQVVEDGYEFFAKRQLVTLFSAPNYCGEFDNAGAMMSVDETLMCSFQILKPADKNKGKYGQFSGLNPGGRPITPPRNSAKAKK

Structure (SMILES): COc1cnc(-c2ccccn2)nc1Sc1ccccc1
EC50 [1]: 2.47 µM (active)
IC50 [2]: > 67 µM (not active)
IC50 [3]: 7.03 µM (active)
EC50 [4]: > 60 µM (not active)

Structure (SMILES): O=C(Nc1ccncc1)c1ccc2c(c1)C(=O)N(C1CCCCC1)C2=O
EC50 [5]: > 35.4 µM (not active)
IC50 [6]: > 35.4 µM (not active)
EC50 [7]: > 35.4 µM (not active)

IC50 [8]: 12 µM (not active)
IC50 [9]: 5.86 µM (active)
Structure (SMILES): COc1cc(/C=C(\C#N)C(=O)Nc2ccc(C(=O)O)cc2)ccc1OC(=O)c1cccc(F)c1

Reference: ChEMBL document CHEMBL1201862, “PubChem BioAssay data set” (2004)
